{"source": "paper PMC2716805", "about": "“Canine Plasminogen: Spectral Responses to Changes in 6-Aminohexanoate and Temperature” (2007)", "molecular_target": "T1, canine plasminogen (DPGN) (Canis lupus, UniProt P80009)", "T1 construct": "gene PLG; intact plasminogen purified from dog blood (samples showing conversion to lys-plasminogen or plasmin discarded)", "T1 sequence (P80009 with tags, fused parts or gaps)": "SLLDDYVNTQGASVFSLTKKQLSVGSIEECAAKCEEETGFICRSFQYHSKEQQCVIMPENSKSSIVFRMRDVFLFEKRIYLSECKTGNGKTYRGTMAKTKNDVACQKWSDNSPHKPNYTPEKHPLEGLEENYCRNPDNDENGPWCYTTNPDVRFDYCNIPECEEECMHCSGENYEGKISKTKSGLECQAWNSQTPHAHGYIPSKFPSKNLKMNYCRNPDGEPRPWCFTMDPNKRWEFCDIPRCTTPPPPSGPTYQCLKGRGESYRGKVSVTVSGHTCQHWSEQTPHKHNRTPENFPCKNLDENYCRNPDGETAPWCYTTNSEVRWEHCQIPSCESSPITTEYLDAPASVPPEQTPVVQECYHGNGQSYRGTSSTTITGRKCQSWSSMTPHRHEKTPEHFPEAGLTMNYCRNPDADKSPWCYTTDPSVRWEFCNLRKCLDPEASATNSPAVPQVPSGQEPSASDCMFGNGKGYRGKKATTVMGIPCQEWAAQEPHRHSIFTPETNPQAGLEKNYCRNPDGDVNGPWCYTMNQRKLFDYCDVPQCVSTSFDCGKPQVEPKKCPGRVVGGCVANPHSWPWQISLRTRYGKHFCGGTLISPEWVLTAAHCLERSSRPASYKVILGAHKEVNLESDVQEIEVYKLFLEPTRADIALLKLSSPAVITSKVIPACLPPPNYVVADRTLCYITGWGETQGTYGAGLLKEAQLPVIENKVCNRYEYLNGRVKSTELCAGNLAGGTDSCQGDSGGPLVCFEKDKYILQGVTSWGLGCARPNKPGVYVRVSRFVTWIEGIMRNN", "experiment": "titration followed by 4th derivative near-UV absorption spectroscopy (R-values)", "assay_type": "binding"}
{"smiles": "NCCCCCC(=O)O", "note": "[6-AH, 6-aminohexanoate]", "values": [{"measurement": "Kd", "result": "~1000", "unit": "nM"}]}
